Experiment [1] deals with β-receptors. The experiment in a line: β-blocking activity in reserpinized anesthetized cat (block of isoprenaline effect on heart rate and peripheral resistance; intrinsic activity). In kind it is in vivo. Particulars: for Intrinsic activity (increase in heart rate relative to basal): after final dose giving 100% blockade of isoprenaline response; for Block of isopren. ED50 HR (heart rate blockade) / Block of isopren. ED50 PR (peripheral resistance blockade): cumulative doses, vs isoprenaline i.v.; for Block of isopren. ED50 PR (peripheral resistance blockade): peripheral vascular resistance. How it is done: Anesthetized cats (males and females weighing 2.5-3.5 kg) were pretreated with reserpine (5 mg/kg bodyweight administered intramuscularly) about 16 hours before the experiments. The animals were pretreated with reserpine in order to eliminate the endogenous sympathetic control of heart rate and vascular smooth muscle tone. The cats were anesthetized with pentobarbital (30 mg/kg bodyweight administered i.p.) and artificially ventilated with room air. A bilateral vagotomy was performed in the neck. Blood pressure was obtained from a cannulated carotid artery and heart rate was registered from a cardiotachometer, triggered by the electrocardiogram (ECG). One […] artery was cannulated and perfused with the cat's own blood, delivered at a constant flow rate with a Watson Marlow roller pump. The perfusion pressure was recorded with a Statham pressure transducer. The blood flow rate was so adjusted that the initially recorded perfusion pressure was slightly above the systemic arterial mean blood pressure. In the studied hind limb the paw was excluded from the circulation by a tight ligature. An isoprenaline dose administered intravenously was established giving a submaximal heart rate (HR) increase and a submaximal decrease of peripheral vascular resistance (PR). The latter is shown as a drop of perfusion pressure.
To start the test, an initial dose of the test compound is injected into the animal. Ten minutes afterward the predetermined dose of isoprenaline is injected and the effect of the isoprenaline on the heart rate and peripheral resistance is noted. By comparing these observations with the normal response of the test animal to the predetermined dose of isoprenaline, the percent blockade of the HR and PR caused by the initial dose of test compound is calculated. The experiment is repeated with logrithmically increasing doses of the test compound (on a cumulative basis), alternating with the predetermined dose of isoprenaline every 10 minutes.
After the final dose of the test compound is administered--which is sufficient to cause a 100% blockade of the isoprenaline response--the intrinsic activity of the test compound is noted as the increase in heart rate relative to the basal heart rate of the test animal before the experiment began.

The target of experiment [2] is T1, α-receptor (Rattus norvegicus, UniProt P43140).
T1 construct: from tissue; host or cells: isolated rat vas deferens
T1 sequence (P43140 1-466): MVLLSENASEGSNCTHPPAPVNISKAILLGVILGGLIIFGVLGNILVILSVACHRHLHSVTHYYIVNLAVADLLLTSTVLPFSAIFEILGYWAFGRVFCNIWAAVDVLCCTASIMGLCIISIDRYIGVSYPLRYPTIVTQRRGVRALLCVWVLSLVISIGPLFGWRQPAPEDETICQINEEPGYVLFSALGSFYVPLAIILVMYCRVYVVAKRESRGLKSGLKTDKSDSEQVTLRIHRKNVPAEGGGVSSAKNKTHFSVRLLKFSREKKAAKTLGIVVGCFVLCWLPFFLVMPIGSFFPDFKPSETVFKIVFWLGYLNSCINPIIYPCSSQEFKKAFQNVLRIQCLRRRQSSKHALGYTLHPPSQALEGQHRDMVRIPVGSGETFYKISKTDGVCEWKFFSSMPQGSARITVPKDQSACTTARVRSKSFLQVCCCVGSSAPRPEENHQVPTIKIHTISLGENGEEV
Put plainly: α-blocking activity in isolated rat vas deferens (antagonism of noradrenaline contraction). How it is done: α-blocking activity was tested in isolated rat vas deferens. Rats were decapitated and the vas deferens was immediately dissected out and mounted in an oxygenated Krebs Ringer solution at 37° C. Noradrenaline administered to the bath caused α-receptor mediated contraction of vas deferens, which was recorded with an isometric tension transducer. Dose response curves to noradrenaline were constructed before and after three increasing doses of the test compound. By using Schildt plots pA2 values for α-receptor blockade were obtained. By definition pA2 =-log concentration of an antagonist (in this case, the test compound) which requires that the concentration of the related agonist (in this case noradrenaline) be doubled in the presence of the antagonist in order to produce the same effect as the agonist caused in the absence of the antagonist.

Where [3] appears, read: isolated rat vas deferens, Krebs Ringer, 37° C., noradrenaline agonist, Schildt plot, read-out: pA2 (α-receptor blockade) (converted).

Where two headings read alike, the source gives them in different places.

`C#CCOc1ccccc1OCC(O)CNC(C)Cc1ccc(O)cc1` (stereo not shown) [Ex. 4, 3-[2-(4-hydroxyphenyl)-1-methylethylamino]-1-o-propargyloxyphenoxy-propanol-2]: in experiment [1], the “Intrinsic activity (increase in heart rate relative to basal)” value was “+22 beats/min”, the “Block of isopren. ED50 HR (heart rate blockade)” value (shortened to “Block of isopren. ED50 HR”) worked out at 0.12 mg/kg and the “Block of isopren. ED50 PR (peripheral resistance blockade)” value (“Block of isopren. ED50 PR” for short) came out at 0.35 mg/kg. Further, the Kb in experiment [2] (setting [3]) was 251 nM.

For the compound `COCCc1ccc(OCC(O)CNC(C)C)cc1` (stereo not shown) [Metoprolol, metoprolol, reference compound], in experiment [1], the “Intrinsic activity (increase in heart rate relative to basal)” value is 0 beats/min, the “Block of isopren. ED50 HR” value is reported as 0.2 mg/kg and the “Block of isopren. ED50 PR” value was 4.7 mg/kg.

Turning to `CCc1ccccc1OCC(O)CNC(C)Cc1ccc(O)cc1` (stereo not shown) [Ex. 2, 3-[2-(4-hydroxyphenyl)-1-methylethylamino]-1-o-ethylphenoxy-propanol-2], in experiment [1], the “Intrinsic activity (increase in heart rate relative to basal)” value was “+32 beats/min”, the “Block of isopren. ED50 HR” value was 0.11 mg/kg and the “Block of isopren. ED50 PR” value is listed as 0.15 mg/kg. The compound also gave a Kb in experiment [2] of 63.1 nM.

On to `Cc1ccccc1OCC(O)CNC(C)(C)Cc1ccc(O)cc1` (stereo not shown) [Ex. 5, 3-[2-(4-hydroxyphenyl)-1,1-dimethylethylamino]-1-o-methylphenoxy-propanol-2], for which, in experiment [1], the “Intrinsic activity (increase in heart rate relative to basal)” value is listed as “+62 beats/min”, the “Block of isopren. ED50 HR” value is 0.06 mg/kg and the “Block of isopren. ED50 PR” value is reported as 0.3 mg/kg. For the same compound, the Kb in experiment [2] (setting [3]) was 1580 nM.

For the compound `CCc1ccccc1OCC(O)CNC(C)(C)Cc1ccc(O)cc1` (stereo not shown) [Ex. 6, 3-[2-(4-hydroxyphenyl)-1,1-dimethylethylamino]-1-o-ethylphenoxy-propanol-2], in experiment [1], the “Intrinsic activity (increase in heart rate relative to basal)” value is “+38 beats/min”, the “Block of isopren. ED50 HR” value is on record as 0.04 mg/kg and the “Block of isopren. ED50 PR” value is recorded as 0.04 mg/kg. Further, the Kb in experiment [2] (setting [3]) was 158 nM.

For the compound `C=CCc1ccccc1OCC(O)CNC(C)Cc1ccc(O)cc1` (stereo not shown) [Ex. 3, 3-[2-(4-hydroxyphenyl)-1-methylethylamino]-1-o-allylphenoxy-propanol-2], in experiment [1], the “Intrinsic activity (increase in heart rate relative to basal)” value is listed as “+33 beats/min”, the “Block of isopren. ED50 HR” value is 0.7 mg/kg and the “Block of isopren. ED50 PR” value was determined as 1.1 mg/kg. Further, the Kb in experiment [2] was 63.1 nM.

For `Cc1cccc(OCC(O)CNC(C)Cc2ccc(O)cc2)c1C` (stereo not shown) [Ex. 9, 3-[2-(4-hydroxyphenyl)-1-methylethylamino]-1-[2,3-dimethylphenoxy]-propanol-2], in experiment [1], the “Block of isopren. ED50 HR” value stood at 0.26 mg/kg and the “Block of isopren. ED50 PR” value is 0.59 mg/kg. The Kb in experiment [2] (setting [3]) is 794 nM.

With `Cc1ccccc1OCC(O)C(C)NC(C)(C)Cc1ccc(O)cc1` (stereo not shown) [Ex. 13, 3-methyl-3-[2-(4-hydroxyphenyl)-1,1-dimethylethylamino]-1-o-methylphenoxy-propanol-2], in experiment [1], the “Intrinsic activity (increase in heart rate relative to basal)” value is “+9 beats/min”, the “Block of isopren. ED50 HR” value worked out at 1.3 mg/kg and the “Block of isopren. ED50 PR” value was found to be 8.5 mg/kg. For the same compound, in experiment [2] (setting [3]), the Kb was 631 nM.

Consider `CCCc1ccccc1OCC(O)CNC(C)Cc1ccc(O)cc1` (stereo not shown) [Ex. 16, 3-[2-(4-hydroxyphenyl)-1-methylethylamino]-1-o-propylphenoxy-propanol-2], for which, in experiment [1], the “Intrinsic activity (increase in heart rate relative to basal)” value was “+35 beats/min”, the “Block of isopren. ED50 HR” value stood at 1.3 mg/kg and the “Block of isopren. ED50 PR” value is listed as 0.8 mg/kg. Besides, the Kb in experiment [2] (setting [3]) is 158 nM.

Take `CCc1ccccc1OCC(O)C(C)NC(C)Cc1ccc(O)cc1` (stereo not shown) [Ex. 11, 3-methyl-3-[2-(4-hydroxyphenyl)-1-methylethylamino]-1-o-ethylphenoxy-propanol-2]: in experiment [1], the “Intrinsic activity (increase in heart rate relative to basal)” value is reported as “+18 beats/min”, the “Block of isopren. ED50 HR” value turned out to be 0.3 mg/kg and the “Block of isopren. ED50 PR” value is reported as 0.5 mg/kg. For the same compound, the Kb in experiment [2] (setting [3]) was 631 nM.

`C=CCc1ccccc1OCC(O)CNC(C)(C)Cc1ccc(O)cc1` (stereo not shown) [Ex. 7, 3-[2-(4-hydroxyphenyl)-1,1-dimethylethylamino]-1-o-allylphenoxy-propanol-2]: in experiment [1], the “Intrinsic activity (increase in heart rate relative to basal)” value is reported as “+39 beats/min”, the “Block of isopren. ED50 HR” value worked out at 0.09 mg/kg and the “Block of isopren. ED50 PR” value amounted to 0.06 mg/kg. Moreover, the Kb in experiment [2] (setting [3]) is 398 nM.

Regarding `Cc1cccc(OCC(O)CNC(C)Cc2ccc(O)cc2)c1` (stereo not shown) [Ex. 15, 3-[2-(4-hydroxyphenyl)-1-methylethylamino]-1-m-methylphenoxy-propanol-2], in experiment [1], the “Intrinsic activity (increase in heart rate relative to basal)” value is recorded as “+16 beats/min”, the “Block of isopren. ED50 HR” value turned out to be 0.3 mg/kg and the “Block of isopren. ED50 PR” value is 0.9 mg/kg. The Kb in experiment [2] (setting [3]) is 6310 nM.

With `Cc1ccccc1OCC(O)CNC(C)Cc1ccc(O)cc1` (stereo not shown) [Ex. 1, 3-[2-(4-hydroxyphenyl)-1-methylethylamino]-1-o-methylphenoxy-propanol-2], in experiment [1], the “Intrinsic activity (increase in heart rate relative to basal)” value is on record as “+16 beats/min”, the “Block of isopren. ED50 HR” value was determined as 0.07 mg/kg and the “Block of isopren. ED50 PR” value was 0.07 mg/kg. Besides, the Kb in experiment [2] (setting [3]) was 158 nM.

On to `COc1ccccc1OCC(O)CNC(C)Cc1ccc(O)cc1` (stereo not shown) [Ex. 10, 3-[2-(4-hydroxyphenyl)-1-methylethylamino]-1-o-methoxyphenoxy-propanol-2], for which, in experiment [1], the “Intrinsic activity (increase in heart rate relative to basal)” value is on record as “+40 beats/min”, the “Block of isopren. ED50 HR” value is 0.04 mg/kg and the “Block of isopren. ED50 PR” value is reported as 0.5 mg/kg. Moreover, the Kb in experiment [2] (setting [3]) is 398 nM.

As to `C=CCc1ccccc1OCC(O)C(CC)NC(C)Cc1ccc(O)cc1` (stereo not shown) [Ex. 12, 3-ethyl-3-[2-(4-hydroxyphenyl)-1-methylethylamino]-1-o-allylphenoxy-propanol-2], in experiment [1], the “Block of isopren. ED50 HR” value was determined as 5.1 mg/kg and the “Block of isopren. ED50 PR” value came out at 3.3 mg/kg. Besides, in experiment [2] (setting [3]), the Kb is 251 nM.

Take `CC(C)NCC(O)COc1cccc2ccccc12` (stereo not shown) [Propranolol, propranolol, reference compound]: in experiment [1], the “Intrinsic activity (increase in heart rate relative to basal)” value stood at 0 beats/min, the “Block of isopren. ED50 HR” value worked out at 0.1 mg/kg and the “Block of isopren. ED50 PR” value worked out at 0.1 mg/kg.

For `C=CCc1ccccc1OCC(O)C(C)NC(C)(C)Cc1ccc(O)cc1` (stereo not shown) [Ex. 14, 3-methyl-3-[2-(4-hydroxyphenyl)-1,1-dimethylethylamino]-1-o-allylphenoxy-propanol-2], in experiment [1], the “Intrinsic activity (increase in heart rate relative to basal)” value was “+3 beats/min”, the “Block of isopren. ED50 HR” value turned out to be 2.5 mg/kg and the “Block of isopren. ED50 PR” value was determined as 0.6 mg/kg. Besides, the Kb in experiment [2] (setting [3]) was 39.8 nM.

The values are drawn from patent US4161542A, “Heart active compounds” (priority 1975, dated 1979).
